Test results: PubChem BioAssay (NCI)
Values joined by “and” are separate entries in the source; they are usually repeats but may differ in a detail not shown here. Equal entries are not always repeated.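 How tested: cells in 96-well plates exposed to compound for 48 hours at five concentrations. TGI is the concentration that stops growth completely.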

Columns and labels:
Experiment in all cases: NCI tumour cell line growth inhibition, 48 h
MDA-MB-231 breast = tested on: MDA-MB-231 breast
NCI-H460 lung = tested on: NCI-H460 lung
PC-3 prostate = tested on: PC-3 prostate
HS 578T breast = tested on: HS 578T breast
MDA-MB-435 = tested on: MDA-MB-435
DU-145 prostate = tested on: DU-145 prostate
A498 renal = tested on: A498 renal
A549 NSCLC = tested on: A549 NSCLC
HCT-15 colon = tested on: HCT-15 colon
SNB-75 CNS = tested on: SNB-75 CNS

SMILES	TGI (MDA-MB-231 breast) [µM]	TGI (NCI-H460 lung)	TGI (PC-3 prostate) [µM]	TGI (HS 578T breast) [µM]	TGI (MDA-MB-435) [µM]	TGI (DU-145 prostate) [µM]	TGI (A498 renal)	TGI (A549 NSCLC) [µM]	TGI (HCT-15 colon) [µM]	TGI (SNB-75 CNS)
O=C1CCC(=Nc2ccc(Cl)cc2)N1C(=O)COc1ccc(OCC(=O)N2C(=O)CSC2=Nc2ccc(Cl)cc2)cc1	> 100	> 100 µM	> 100	> 100	> 100	> 100	> 100 µM	> 100	> 100	91.9 µM
CC1(C)C(c2ccccc2)=[N+]([O-])C(C)(C)N1O	> 10	> 10 µM	> 10	> 10	> 10	> 10	> 10 µM	> 10	> 10	> 10 µM
O=C(CN1CCCCC1)CC(O)(C(F)(F)F)C(F)(F)F	> 100	> 100 µM	> 100	> 100	> 100	> 100	> 100 µM	> 100	> 100	> 100 µM
COc1cc2c(cc1OC)C1c3ccccc3CCN1CC2 (stereo not given)	> 100	> 100 µM	> 100	> 100	> 100	> 100	> 100 µM	> 100	> 100	> 100 µM
O=c1cc(/C=C/c2ccc(O)c(O)c2)oc(/C=C/c2ccc(O)c(O)c2)c1	21.6	21.2 µM	17.6	65.9	11.8	12.8	14.4 µM	37.1	27.6	15.3 µM
CC1(C)O[C@@H]2COC(=O)[C@@H]2O1	> 100	> 100 µM	> 100	> 100	> 100	> 100	> 100 µM	> 100	> 100	> 100 µM
NC(CSCc1ccccc1)C(=O)O (stereo not given)	> 100	> 100 µM	> 100	> 100	> 100	> 100	> 100 µM	> 100	> 100	> 100 µM
COC(=O)c1c(C)cccc1/C=C1/Cc2c(C)cccc2C1=O	> 100	> 100 µM	> 100	> 100	> 100	> 100	> 100 µM	> 100	> 100	> 100 µM
C=C1C(=O)OC2/C=C(\CO)C(OC(C)=O)CC(O)/C(C)=C/C(OC(=O)C(C)CC)C12 (stereo not given)	32.7	63.6 µM and > 100 µM	> 100	> 100	47.6	43.8	91.9 µM and 88.7 µM	> 100	> 100	69.3 µM and 96.3 µM
c1ccc2c(c1)[nH]c1nc3cc(-c4ccc5nc6c(nc5c4)[nH]c4ccccc46)ccc3nc12	97	> 100 µM	> 100	> 100	> 100	> 100	> 100 µM	> 100	> 32.3	> 100 µM
O=[N+]([O-])C(=C(N1CCCCC1)N1CCCCC1)/C(Cl)=C(\Cl)Br	70.6	> 100 µM	60.3	45.4	61.7	> 100	42.2 µM	> 100	54.1	34.4 µM
O=c1c2ncn(C3CC(O)C(CO)O3)c2nnn1Cc1ccccc1[N+](=O)[O-] (stereo not given)	> 100	> 100 µM	> 100	> 100	> 100	> 100	> 100 µM	> 100	> 100	> 100 µM
CCOC1CC(=O)c2c(Br)sc(Br)c21 (stereo not given)	35.9	43.1 µM	47.2	90.6	33.6	32.5	83.3 µM	95.1	41.9	35.7 µM
